{
  "source": "patent US11911406B2",
  "about": "“PH-responsive polymer-drug conjugates for enhanced antibacterial efficacy” (priority 2020, dated 2024)",
  "key": {"P. aeruginosa ATCC 27853 [1]": {"system": "P. aeruginosa ATCC 27853", "test": "Mouse lung infection model", "assay_type": "in vivo, ICR mice", "procedure": "Mouse lung infection model. […] In another experiment of monitoring the mice survival for the lung infection model, the P. aeruginosa infected mice were given 2 treatments (1 h and 8 h after the infection) and their survival was observed using Kaplan-Meier curves (n=5)."}, "[2]": {"system": "HEK 293 human embryonic kidney cells", "test": "Cell viability test (MTT cytotoxicity)", "assay_type": "cell-based", "settings": "48 h, row marked pH 7.4", "procedure": "Cell viability test. Cytotoxicity of different components was tested through MTT assays. HEK 293 human embryonic kidney cells were seeded onto a 96-well plate (1×10^4 cells/well) and cultured overnight. The cells were then treated with various polymers or PDCs with serial dilutions for 48 h and their viability was measured by a standard MTT assay. Data were collected by monitoring the difference between the absorbance at 560 nm and 650 nm using a GloMax-Multi Microplate Multimode Reader (Promega, Wis., USA)."}, "[3]": {"system": "E. coli, MRSA and P. aeruginosa", "test": "Scanning electron microscopy (SEM) observation", "assay_type": "cell-based", "settings": "pH 6.0, 3 h", "procedure": "Scanning electron microscopy (SEM) observation. Bacteria suspensions were prepared as above and treated with PDC at different pH for 3 h, washed with saline and fixed with 2.5% glutaraldehyde at 4° C. overnight. The samples were washed with Milli-Q water and dehydrated with a series of graded ethanol solutions (50%, 75%, 90%, 100%, each for 5 min). After drying for 1 day, the samples were coated with platinum and observed by SEM (Zeiss/LEO 1530)."}, "E. coli (DH5 alpha)": {"system": "E. coli (DH5 alpha)", "test": "MIC, broth microdilution", "assay_type": "cell-based", "procedure": "(§1) Bacterial strains. S. aureus Newman was kindly provided by Prof Douglas Weibel; E. coli ATCC25922, S. aureus ATCC 33591 and P. aeruginosa ATCC 27853 were kindly donated by Prof. David Andes. E. coli DH5a was purchased from Thermo Fisher. The bacteria above were grown in Mueller Hinton Broth (MHB) media (Criterion, Santa Maria, Calif., USA). M. smegmatis mc^2155 strain was kindly donated by Prof. Adel M. Talaat, and was grown in Middlebrook 7H9 broth (HiMedia, West Chester, Pa., USA).\n(§2) Minimal inhibitory concentration (MIC) measurements. The MIC of the different treatments on various bacteria strains was determined using the broth microdilution method. Briefly, 100 μL of the respective broth media containing serial twofold dilutions of each compound was placed into a 96-well tissue culture plate. Each bacterial strain was taken from an exponentially growing culture and diluted to 5×10^6 CFU/mL. 10 μL of such microbial suspension was inoculated in each well of the plate, resulting in a final bacteria concentration of approximately 5×10^5 CFU/mL. The bacteria were cultured at 37° C. for 24 h and their growth were observed by reading the optical density (OD) at 600 nm. The MIC was determined as the treatment concentration at which no microbial growth was observed. Broth containing microbial cells alone was used as a positive control and broth without bacteria inoculation was used as a negative control. Each test was carried out in 3 replicates."}, "[4]": {"system": "P. aeruginosa (ATCC 27853)", "test": "MIC, broth microdilution", "assay_type": "cell-based", "procedure": "as §1, §2"}, "S. aureus (Newman)": {"system": "S. aureus (Newman)", "test": "MIC, broth microdilution", "assay_type": "cell-based", "procedure": "as §1, §2"}, "E. coli (ATCC 25922)": {"system": "E. coli (ATCC 25922)", "test": "MIC, broth microdilution", "assay_type": "cell-based", "procedure": "as §1, §2"}, "[5]": {"system": "S. aureus (MRSA ATCC33591)", "test": "MIC, broth microdilution", "assay_type": "cell-based", "procedure": "as §1, §2"}, "M. smegmatis (MC^2 155)": {"system": "M. smegmatis (MC^2 155)", "test": "MIC, broth microdilution", "assay_type": "cell-based", "procedure": "as §1, §2"}, "P. aeruginosa biofilm": {"system": "P. aeruginosa biofilm", "test": "Biofilm inhibition assay (crystal violet)", "assay_type": "cell-based", "settings": "256 μg/mL streptomycin", "procedure": "(§3) Biofilm inhibition assays. Exponentially growing bacteria were inoculated into 96 well plates (1×10^4 cell/well) containing MHB broth with 2% (v/w) glucose, incubated under stationary conditions at 37° C. for one day. After biofilm formation, the media was discarded and the plates were washed with PBS to remove the planktonic bacteria. Fresh NMB broth containing serially diluted free streptomycin or PDC were added to the plates and incubated at 37° C. for another 24 h. The media in each well was then removed, and the plates were washed carefully with PBS for 1 time. The biofilm in each well was fixed with 95% ethanol for 15 min and stained with 0.1% crystal violet for 15 min. After washing with Milli-Q water for three times, 33% v/v acetic acid (100 μL/well) was added to solubilize the crystal violet staining. OD 560 in each well was read to determine the biofilm formation. The biofilm formed as described above was also stained with acridine orange and Cy5 labeled PDC, and monitored by CLSM to observe the PDC penetration."}, "E. coli biofilm": {"system": "E. coli biofilm", "test": "Biofilm inhibition assay (crystal violet)", "assay_type": "cell-based", "settings": "streptomycin concentration 16 μg/mL", "procedure": "as §3"}, "E. coli ATCC 25922 [6]": {"system": "E. coli ATCC 25922", "test": "Live/Dead bacterial staining assay (AO/EB)", "assay_type": "cell-based", "settings": "0.5 h and 3 h", "procedure": "Live/Dead bacterial staining assay. Exponentially growing bacteria (E. coli ATCC 25922) were collected by centrifugation at 8000 rpm for 5 min, washed with saline and diluted to OD 600 value of 0.5. The bacterial suspensions were incubated with different treatments at 37° C. for 0.5 h and 3 h, and then washed with saline and stained by acridine orange (10 μg/mL) and ethidium bromide (EB, […]) solution for 15 min. Afterward, the bacteria were collected via centrifugation, washed with saline for 2 times, resuspended in 70% glycerol and spread on glass slides. The live/dead bacteria were observed by a confocal laser scanning microscope (CLSM)."}, "P. aeruginosa ATCC 27853 [7]": {"system": "P. aeruginosa ATCC 27853", "test": "Checkerboard assay, FIC index", "assay_type": "cell-based", "procedure": "(§4) Fractional inhibitory concentration (FIC) measurement. The synergy between the cationic polymer and streptomycin was assessed by checkerboard assays. The two antibacterial components were mixed in a 96-well plate with serial two-dimensional dilutions. Bacteria were inoculated in each well of the plate and their growth, reflected by the OD600 value, were monitored. The synergy effect was evaluated by calculating the FIC index according to the formula below:\n(§5) [formula] MICA^Comb and MICB^Comb indicate the MICs of the two components in combination. The interactions between the two components are defined according to standard criteria of considering FIC≤0.5 as synergistic; 0.5<FIC≤1 as additive; 1<FIC≤4 as indifference; and FIC>4 as antagonism."}, "E. coli ATCC 25922 [8]": {"system": "E. coli ATCC 25922", "test": "Checkerboard assay, FIC index", "assay_type": "cell-based", "procedure": "as §4, §5"}, "[9]": {"system": "methicillin-resistant S. aureus (MRSA, ATCC 33591)", "test": "Checkerboard assay, FIC index", "assay_type": "cell-based", "procedure": "as §4, §5"}},
  "data": [
    {"substance": "Hex-Cys-Cys-DET-strep-DMA [Neutralized PDC]", "values": [
      {"measurement": "survival, in words", "setting": "P. aeruginosa ATCC 27853 [1]; 2 i.v. injections (1 h and 8 h after the infection)", "value": "all of the PDC treated mice survived"},
      {"measurement": "bacterial burden in lungs, in words", "setting": "P. aeruginosa ATCC 27853 [1]; single i.v. injection 1 h after infection, CFU per lung at 12 h", "value": "lowest bacterial burden in their lungs"},
      {"measurement": "HEK293 IC50", "setting": "[2]", "value": ">2000", "unit": "µg/mL"},
      {"measurement": "bacterial membrane morphology (SEM), in words", "setting": "[3]", "value": "severe membrane disruption and deformation"},
      {"measurement": "MIC E. coli (DH5 alpha)", "setting": "E. coli (DH5 alpha); pH 6.0", "value": 20, "unit": "µg/mL"},
      {"measurement": "MIC E. coli (DH5 alpha)", "setting": "E. coli (DH5 alpha); pH 7.4", "value": 80, "unit": "µg/mL"},
      {"measurement": "MIC P. aeruginosa (ATCC 27853)", "setting": "[4]; pH 6.0", "value": 40, "unit": "µg/mL"},
      {"measurement": "MIC P. aeruginosa (ATCC 27853)", "setting": "[4]; pH 7.4", "value": 160, "unit": "µg/mL"},
      {"measurement": "MIC S. aureus (Newman)", "setting": "S. aureus (Newman); pH 6.0", "value": 20, "unit": "µg/mL"},
      {"measurement": "MIC S. aureus (Newman)", "setting": "S. aureus (Newman); pH 7.4", "value": 80, "unit": "µg/mL"},
      {"measurement": "MIC E. coli (ATCC 25922)", "setting": "E. coli (ATCC 25922); pH 6.0", "value": 20, "unit": "µg/mL"},
      {"measurement": "MIC E. coli (ATCC 25922)", "setting": "E. coli (ATCC 25922); pH 7.4", "value": 80, "unit": "µg/mL"},
      {"measurement": "MIC S. aureus (MRSA ATCC33591)", "setting": "[5]; pH 6.0", "value": 40, "unit": "µg/mL"},
      {"measurement": "MIC S. aureus (MRSA ATCC33591)", "setting": "[5]; pH 7.4", "value": 160, "unit": "µg/mL"},
      {"measurement": "MIC M. smegmatis (MC^2 155)", "setting": "M. smegmatis (MC^2 155); pH 6.0", "value": 2.5, "unit": "µg/mL"},
      {"measurement": "MIC M. smegmatis (MC^2 155)", "setting": "M. smegmatis (MC^2 155); pH 7.4", "value": 20, "unit": "µg/mL"},
      {"measurement": "biofilm reduced / removed", "setting": "P. aeruginosa biofilm", "value": 96, "unit": "%"},
      {"measurement": "biofilm eliminated", "setting": "E. coli biofilm", "value": 75, "unit": "%"},
      {"measurement": "bactericidal effect / EB staining, in words", "setting": "E. coli ATCC 25922 [6]", "value": "much delayed and pH-dependent bactericidal effect"},
      {"measurement": "FICI of the two components in the PDC (tethered together)", "setting": "P. aeruginosa ATCC 27853 [7]", "value": 0.306},
      {"measurement": "FICI of the two components in the PDC (tethered together)", "setting": "E. coli ATCC 25922 [8]", "value": 0.362},
      {"measurement": "FICI of the two components in the PDC (tethered together)", "setting": "[9]", "value": 0.475}
    ]}
  ]
}
